# Laboratory results reported in US8421457B2, “Methods and systems for magnetically resonating both a subject and a substance administered to the subject” (Applied Magnetics, LLC, priority 2008, dated 2013).
# What was measured:
# osteoarthritis patients = conditions: for results of continuing treatment / stiffness in hand, before treatment / pain in thumb, before treatment: person, taking the drugs; for results of continuing treatment: back pain (degenerative disk disease, sciatica), resonated approx. three times per week for more than one year; for stiffness in hand, before treatment / pain in thumb, before treatment: osteoarthritis, before MR; for stiffness in hand, before treatment: scale zero (feels great) to ten (feels terrible)
# Description: In one example, a person suffered from back pain due to degenerative disk disease in their low back and sciatica. […] The subject was resonated approximately three times per week for more than one year.
# In another example, a person experienced arthritis pain in a number of joints, including their hips, hands, and shoulders. The subject also suffered from sciatica in their hips and legs. The subject was taking Celebrex. The subject was resonated at least three times per week for one to two hours per session.
# In a further example, a person experienced osteoarthritis pain and stiffness in their hands and finger joints. […] The subject was resonated twice for one-half hour per treatment. The subject was asked to rate their pain on a scale of zero (feels great) to ten (feels terrible) before and after treatment.
# Alternatively, an amplitude of about 0.01 μG to about 0.46 μG, with a frequency of about 0.2799 Hz to about 12.8765 Hz may be used.
# subject with back pain = assay: Case reports: low back pain, drugs combined with MR treatment; assay type: in vivo, human; conditions: person, taking the drugs; for decrease in pain level and stiffness level: four one-hour MR treatments over eleven days; for decrease in stiffness level: one MR treatment of one hour
# Description: In one example, a person experienced pain and stiffness associated with their low back. The subject was taking Aspirin and Ibuprofen. Over the course of ten days, the subject received three treatments. The result was a decrease in pain level of 50-100%.
# In another example, a person experienced pain and stiffness associated with their low back. The subject was taking Aspirin and Ibuprofen. Over the course of eleven days, the subject received four treatments, each lasting one hour. The result was a decrease in pain level and stiffness level of 75%.
# In another example, a person experienced pain and stiffness associated with their low back. The subject was taking Aspirin and Ibuprofen. The subject received one treatment, lasting one hour. The result was a decrease in pain level of 60-70% and stiffness level of 90%.
# In providing MR treatment to a subject with back pain, an amplitude of about 0.01 μG to about 0.457 μG, with a frequency of about 0.2799 Hz to about 12.8 Hz may be used.
# [1] = tested on: migraine and headache patients; assay: Case reports: migraine and headache drugs combined with MR treatment; assay type: in vivo, human
# Procedure: The subject was resonated ten times for 1 to 1.5 hours per treatment over a one-month period.
# In another example, a person experienced pain associated with migraines. […] The subject received two one-hour treatments three months apart.
# In a further example, a person experienced pain associated with severe headaches. The subject took Aspirin to treat the pain. The subject received one treatment for one hour.
# injured patients = assay: Case reports: injuries, drugs combined with MR treatment; assay type: in vivo, human; conditions: person, taking the drugs; for elimination of pain and stiffness: injured right knee (old Meniscus tear), 3 MR treatments of 1 hour over 5 days
# Description: In another example, a person experienced pain and stiffness associated with a shoulder injury. The subject was taking Aspirin and Ibuprofin. The subject received two one-hour treatments three days apart. The result was a decrease in pain level of 50% and a decrease in stiffness of 50%.
# In a further example, a person experienced pain and stiffness associated with an injured knee. The subject was taking Aspirin and Ibuprofin. Over the course of 5 days, the subject received 3 treatments, each lasting 1.5 hours. The result was a decrease in pain level of 50-100% and a decrease in stiffness of 50%.
# In a further example, a person experienced pain and stiffness associated with an injured right knee that was the result of an old Meniscus tear injury. The subject was taking Aspirin and Ibuprofin. Over the course of 5 days, the subject received 3 treatments, each lasting 1 hour. The result was a 100% elimination of their pain an stiffness.
# In another example, a person experienced pain and stiffness associated with an injured left knee. The subject was taking Aspirin and Ibuprofin. Over the course of three days, the subject received two treatments, each lasting one hour. The result was a decrease in pain level of 75% and a decrease in stiffness of 50%.
# In providing MR treatment to a subject with pain and/or one or more injuries, an amplitude of about 0.01 μG to about 0.5 μG, with a frequency of about 0.2799 Hz to about 14.0 Hz may be used.
# [2] = tested on: diabetic peripheral neuropathy patients; assay: Case report: diabetic neuropathy drugs combined with MR treatment; assay type: in vivo, human; conditions: diabetic neuropathy in both feet, taking the drugs; resonated four times for one hour each
# Description: In one subject, a person suffered with diabetic neuropathy in both feet. […] The subject was taking the drugs Actos, Metaformin, and Lisinopril. The subject was resonated four times for one hour each time. […] As of fifteen months after the last treatment session, the sensation remained. Also, the subjects from Example 5 reported improvements with respect to symptoms relating to diabetic neuropathy (e.g., lack of sensation and pain).
# In providing MR treatment to a subject with diabetic neuropathy, an amplitude of about 0.455 μG to about 0.53 μG, with a frequency of about 12.7 Hz to about 14.84 Hz may be used.
# cancer patients = conditions: in vivo
# Procedure: In one example, carboplaton and taxol are cancer drugs for treating cancer, including ovarian cancer.
# For this protocol, the MR device settings may be, for example, amplitude=about 0.017 μG to about 0.3 μG, frequency=about 0.3 Hz to about 9.6 Hz, waveform=sine or square, and MR treatment duration=about 80 minutes.
# fibromyalgia patients = assay: Case reports: fibromyalgia, drugs combined with MR treatment; assay type: in vivo, human; conditions: same subject; thirteen MR treatments within a two-month period
# Procedure: In one example, a person experienced fibromyalgia for a number of years. The subject also experienced insomnia, restless legs, and chronic fatigue. The subject took the drug Naproxen (Aleve). The subject received seven consecutive days of 1 to 1.5 hour treatments.
# Their primary complaint was back pain. […] The subject received thirteen treatments within a two-month period. […] Approximately two months after completing their first series of treatment, they began a second regimen of ten treatments within a two-month period.
# In a further example, a person at least fifty years old suffered from fibromyalgia for a number of years. […] The subject received daily (when possible) treatments for approximately one year.
# [3] = tested on: patients with high cholesterol; assay: Case report: cholesterol drug combined with MR treatment; assay type: in vivo, human; conditions: person taking Lipitor; three MR treatments per week for twenty months
# Procedure: In one example, a person was taking the drug Lipitor to manage their cholesterol levels. The subject began a series of three treatments per week for twenty months, and continuing on an ongoing basis. […] In order to provide MR treatment for cholesterol, the MR device settings may range from an amplitude from about 0.4998 μG to about 0.075 μG and a frequency from about 2.1 Hz to about 13.9996 Hz, or ranges within these ranges.
# [4] = injured knee, 3 MR treatments of 1.5 hours over 5 days
# [5] = injured left knee, two one-hour MR treatments over three days
# [6] = shoulder injury, two one-hour MR treatments three days apart
# [7] = same subject, after being resonated twice for one-half hour per treatment, scale zero to ten
compound,measurement,setting,value
CC(C)Cc1ccc(C(C)C(=O)O)cc1 (stereo not drawn) [Ibuprofin],results of continuing treatment,osteoarthritis patients,"significantly less pain, an improved range of motion, and improved sleep"
same,"stiffness in hand, before treatment",osteoarthritis patients,two
same,"pain in thumb, before treatment",osteoarthritis patients; scale zero to ten,three
same,decrease in pain level and stiffness level,subject with back pain,75%
same,decrease in stiffness level,subject with back pain,90%
same,results on migraines,"[1]; person with migraines taking the drugs, resonated ten times, 1 to 1.5 hours, over one month",decreased frequency and duration of migraines
same,pain level before being resonated,"[1]; person with migraines taking the drugs, scale of zero to ten",nine
same,reduction in pain level,"[1]; person with migraines taking the drugs, two one-hour MR treatments three months apart",50%
same,pain level after treatment,"[1]; same subject, after ten MR treatments over one month, scale of zero to ten",two
same,decrease in stiffness,injured patients; [4],50%
same,decrease in pain level,injured patients; [5],75%
same,decrease in stiffness,injured patients; [5],50%
same,elimination of pain and stiffness,injured patients,100%
same,decrease in pain level,injured patients; [6],50%
same,decrease in stiffness,injured patients; [6],50%
CC(=O)Oc1ccccc1C(=O)O [Aspirin],results of continuing treatment,osteoarthritis patients,"significantly less pain, an improved range of motion, and improved sleep"
same,"stiffness in hand, before treatment",osteoarthritis patients,two
same,"pain in thumb, before treatment",osteoarthritis patients; scale zero to ten,three
same,"pain in thumb, after treatment",osteoarthritis patients; [7],zero
same,"stiffness in hand, after treatment",osteoarthritis patients; [7],zero
same,decrease in pain level and stiffness level,subject with back pain,75%
same,decrease in stiffness level,subject with back pain,90%
same,pain before treatment,"[1]; person, severe headaches, taking Aspirin, before MR",6.5
same,pain after treatment,"[1]; same subject, after one MR treatment for one hour",zero
same,decrease in stiffness,injured patients; [4],50%
same,decrease in pain level,injured patients; [5],75%
same,decrease in stiffness,injured patients; [5],50%
same,elimination of pain and stiffness,injured patients,100%
same,decrease in pain level,injured patients; [6],50%
same,decrease in stiffness,injured patients; [6],50%
CCc1ccc(CCOc2ccc(CC3SC(=O)NC3=O)cc2)nc1 (stereo not drawn) [Actos],result of treatment on sensation in feet,[2],"sensation returned for touch, texture, and temperature"
CN(C)C(=N)NC(=N)N [Metaformin],result of treatment on sensation in feet,[2],"sensation returned for touch, texture, and temperature"
N.N.O=C([O-])C1(C(=O)[O-])CCC1.[Pt+2] [carboplaton],reported effects after taking the cancer drugs,cancer patients,increased lethargy and decreased energy and motivation
NCCCC[C@H](N[C@@H](CCc1ccccc1)C(=O)O)C(=O)N1CCC[C@H]1C(=O)O [Lisinopril],"pain level after treatment, first series",fibromyalgia patients,0.5
same,result of treatment on sensation in feet,[2],"sensation returned for touch, texture, and temperature"
CC(C)c1c(C(=O)Nc2ccccc2)c(-c2ccccc2)c(-c2ccc(F)cc2)n1CC[C@@H](O)C[C@@H](O)CC(=O)O [Lipitor],cholesterol levels,[3],at the best ratio in twenty years
